Assay results published in patent US9371336B2, “Compounds for treating spinal muscular atrophy” (PTC Therapeutics Inc., priority 2012, dated 2016).

Experiments:
[1] = system: human SMN1 minigene full length and Δ7 mRNA (SMN1-A); assay: Human SMN1 minigene mRNA end-point semi-quantitative RT-PCR splicing assay in cultured cells; format: cell-based; conditions: HEK293H cells transfected with SMN1-A minigene, increasing concentrations, 7 hours, agarose gel (FIG. 10)
From the text: The RT-PCR assay is used to visualize and quantify the levels of the human SMN1 minigene full length and Δ7 mRNA in primary cells and cell lines expressing the human SMN1 minigene construct treated with a test compound.
Using the procedure for the preparation of the SMN2 minigene construct described in Biological Example 1, the SMN1 version of the minigene is generated by replacing the sixth nucleotide of exon 7 (a thymine residue) of the SMN2-A minigene construct to cytosine using site-directed mutagenesis. Thus, similar to the SMN2-A minigene construct, the SMN1 minigene construct has a single adenine residue inserted after nucleic residue 48 of exon 7. The SMN1 minigene construct is referred to as SMN1-A.
HEK293H cells (10,000 cells/well/199 μL) were transfected, using FuGENE-6 reagent, in a 96-well plate with 15 ng of the SMN1-A minigene reporter plasmid per well. Cells were incubated for 24 hours following transfection. Test compounds were serially diluted 3.16-fold in 100% DMSO to generate a 7-point concentration curve. A solution of test compound (1 μL, 200× in DMSO) was added to each test well. 1 μL DMSO was added to each control well. The plate was incubated for 7 hours in a cell culture incubator (37° C., 5% CO2, 100% relative humidity). The cells were then lysed in Cells-To-Ct lysis buffer and the lysates were stored at −80° C.
Two SMN spliced mRNA are generated from the SMN1 minigene. The term “SMN1 minigene FL” refers to the first spliced product containing exon 7, corresponding to full length SMN1 mRNA. The term “SMN1 minigene A7” refers to the second product lacking exon 7.
SMN1 minigene FL and SMN1 minigene Δ7 mRNA are amplified using the primers in Table 11. Primer SMN Forward C (SEQ ID NO. 11) hybridizes to a nucleotide sequence in exon 6 (nucleotide 43 to nucleotide 63), primer SMN Reverse A (SEQ ID NO. 2) hybridizes to a nucleotide sequence in the coding sequence of Firefly luciferase. The combination of these two oligonucleotides detects only SMN1 or SMN2 minigenes (RT-PCR) and will not detect endogenous SMN1 or SMN2 genes. Since the HEK293H cells used in Example 16 were transfected with only the human SMN1 minigene, RT-PCR can visualize and quantify only SMN1 minigene FL and SMN1 minigene Δ7 mRNA.
To synthesize cDNA, 5 μL of lysate, 4 μL of 5× iScript reaction mix, 1 μL of reverse transcriptase, and 10 μL of water are combined and incubated 5 min at 25° C. followed by 30 min at 42° C., followed by 5 min at 85° C. The cDNA solution is stored at −20° C.
To perform endpoint PCR, 5 μL of cDNA, 0.2 μL of 100 μM forward primer, 0.2 μL of 100 μM reverse primer, and 22.5 μL of polymerase super mix are combined in a 96 well semiskirted PCR plate. PCR is carried out at the following temperatures for the indicated time: Step 1: 94° C. (2 min), Step 2: 94° C. […]

CN1CCN(c2ccc3cc(-c4nc5c(Cl)cccc5s4)c(=O)oc3n2)CC1 [Cpd 5, 3-(4-chloro-1,3-benzothiazol-2-yl)-7-(4-methylpiperazin-1-yl)-2H-pyrano[2,3-b]pyridin-2-one]
melting point: 258 to 260 °C
SMN1 minigene FL mRNA (gel band) [1]: progressively more SMN1 minigene FL mRNA
SMN1 minigene Δ7 mRNA (gel band) [1]: less SMN1 minigene Δ7 mRNA

Cc1ccc2nc(-c3cc4ccc(N5CCN(C)CC5)nc4oc3=O)cn2c1 [Cpd 27, 3-(6-methylimidazo[1,2-a]pyridin-2-yl)-7-(4-methylpiperazin-1-yl)-2H-pyrano[2,3-b]pyridin-2-one]
melting point: 260 to 264 °C
SMN1 minigene FL mRNA (gel band) [1]: progressively more SMN1 minigene FL mRNA
SMN1 minigene Δ7 mRNA (gel band) [1]: less SMN1 minigene Δ7 mRNA
